≈ marks a conversion by molar mass, not a printed value. Calls of active or inactive are those of the source. The calls are words filed in the database; no cut-off is given here.
Experiments:
[1] = system: Staphylococcus aureus; experiment: Antibacterial activity against Methicillin-sensitive Staphylococcus aureus ATCC 6538 clinical isolates after 18 to 20 hrs in aerobic condition by CLSI protocol based broth microdilution assay; type: functional
[2] = system: Staphylococcus aureus; experiment: Antibacterial activity against Methicillin-resistant Staphylococcus aureus NRS123-USA400 clinical isolates after 18 to 20 hrs in aerobic condition by CLSI protocol based broth microdilution assay; type: functional
[3] = system: Staphylococcus aureus; experiment: Antibacterial activity against Methicillin-resistant Staphylococcus aureus NRS385-USA500 clinical isolates after 18 to 20 hrs in aerobic condition by CLSI protocol based broth microdilution assay; type: functional
[4] = system: Staphylococcus aureus; experiment: Antibacterial activity against vancomycin-resistant Staphylococcus aureus isolate 10 after 18 to 20 hrs in aerobic condition by CLSI-based broth microdilution assay; type: functional
[5] = system: Staphylococcus aureus; experiment: Antibacterial activity against vancomycin-resistant Staphylococcus aureus isolate 12 after 18 to 20 hrs in aerobic condition by CLSI-based broth microdilution assay; type: functional
[6] = system: Clostridioides difficile; experiment: Antibacterial activity against Clostridium difficile ATCC BAA 1870 incubated for 48 hrs in anaerobic condition by CLSI-based broth microdilution assay; type: functional; details: ATCC BAA 1870, 48 h
[7] = system: Acinetobacter baumannii; experiment: Antibacterial activity against Acinetobacter baumannii ATCC 19606 clinical isolates after 18 to 20 hrs in aerobic condition by CLSI-based broth microdilution assay; type: functional; details: ATCC 19606 = CIP 70.34 = JCM 6841
[8] = system: Acinetobacter baumannii; experiment: Antibacterial activity against Acinetobacter baumannii NR 17786 clinical isolates after 18 to 20 hrs in aerobic condition by CLSI-based broth microdilution assay; type: functional
[9] = system: Acinetobacter baumannii; experiment: Antibacterial activity against Acinetobacter baumannii NR 17785 clinical isolates after 18 to 20 hrs in aerobic condition by CLSI-based broth microdilution assay; type: functional
[10] = Antibacterial activity against Enterobacter cloacae subsp. cloacae ATCC BAA-1143 clinical isolates after 18 to 20 hrs in aerobic condition by CLSI-based broth microdilution assay; type: functional
[11] = system: Klebsiella pneumoniae; experiment: Antibacterial activity against Klebsiella pneumoniae BAA-1706 clinical isolates after 18 to 20 hrs in aerobic condition by CLSI-based broth microdilution assay; type: functional
[12] = system: Klebsiella pneumoniae; experiment: Antibacterial activity against Klebsiella pneumoniae BAA-1144 clinical isolates after 18 to 20 hrs in aerobic condition by CLSI-based broth microdilution assay; type: functional
[13] = system: Salmonella typhimurium; experiment: Antibacterial activity against Salmonella typhimurium ATCC 700720 after 18 to 20 hrs in aerobic condition by CLSI-based broth microdilution assay; type: functional, Salmonella enterica subsp. enterica serovar Typhimurium; details: Salmonella enterica
[14] = system: Klebsiella pneumoniae; experiment: Antibacterial activity against carbapenem-resistant Klebsiella pneumoniae ATCC BAA-2146 clinical isolates after 18 to 20 hrs in aerobic condition by CLSI-based broth microdilution assay; type: functional
[15] = system: Acinetobacter baumannii; experiment: Antibacterial activity against carbapenem-resistant Acinetobacter baumannii ATCC BAA 1605 clinical isolates after 18 to 20 hrs in aerobic condition by CLSI-based broth microdilution assay; type: functional
[16] = system: Pseudomonas aeruginosa; experiment: Antibacterial activity against carbapenem-resistant Pseudomonas aeruginosa ATCC 1744 clinical isolates after 18 to 20 hrs in aerobic condition by CLSI-based broth microdilution assay; type: functional
[17] = system: Staphylococcus aureus; experiment: Antibiofilm activity against methicillin-resistant Staphylococcus aureus NRS384-USA300 clinical isolates assessed as inhibition of biofilm formation at 0.5 times MIC incubated for 24 hrs by crystal violet staining based spectrophotometric method relative to control; type: functional
[18] = target: T1, Ditrans,polycis-undecaprenyl-diphosphate synthase ((2E,6E)-farnesyl-diphosphate specific) (Escherichia coli (strain K12)) (UniProt P60472); experiment: Inhibition of Escherichia coli UPPS using FPP/IPP as substrate preincubated for 30 mins followed by substrates addition and measured after 30 mins by malachite green reagent based assay
T1 sequence (whole entry): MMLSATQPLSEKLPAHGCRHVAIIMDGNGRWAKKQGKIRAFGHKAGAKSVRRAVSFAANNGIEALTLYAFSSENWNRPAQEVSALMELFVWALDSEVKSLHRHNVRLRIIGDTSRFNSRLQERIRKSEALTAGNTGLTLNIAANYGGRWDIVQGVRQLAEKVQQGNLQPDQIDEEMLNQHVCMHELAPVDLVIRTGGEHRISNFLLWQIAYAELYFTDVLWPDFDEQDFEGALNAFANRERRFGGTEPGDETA

[19] = system: Staphylococcus aureus; experiment: Ratio of MBC to MIC for Methicillin-sensitive Staphylococcus aureus ATCC 6538 clinical isolates; type: functional
[20] = system: Staphylococcus aureus; experiment: Ratio of MBC to MIC for Methicillin-sensitive Staphylococcus aureus NRS107 clinical isolates; type: functional
[21] = system: Streptococcus pneumoniae; experiment: Ratio of MBC to MIC for […] Streptococcus pneumoniae ATCC 700677 clinical isolates; type: functional
[22] = system: Acinetobacter baumannii; experiment: Ratio of MBC to MIC for Acinetobacter baumannii ATCC 19606 clinical isolates; type: functional, ATCC 19606 = CIP 70.34 = JCM 6841
[23] = system: Acinetobacter baumannii; experiment: Ratio of MBC to MIC for Acinetobacter baumannii ATCC BAA 1141 clinical isolates; type: functional
[24] = system: Acinetobacter baumannii; experiment: Ratio of MBC to MIC for Acinetobacter baumannii ATCC BAA 1747 clinical isolates; type: functional
[25] = system: Escherichia coli; experiment: Ratio of MBC to MIC for Escherichia coli BW25113 clinical isolates; type: functional
[26] = system: Escherichia coli; experiment: Ratio of MBC to MIC for Escherichia coli ATCC 35150 clinical isolates; type: functional
[27] = system: Escherichia coli; experiment: Ratio of MBC to MIC for Escherichia coli ATCC 1411 clinical isolates; type: functional
[28] = system: Salmonella enterica; experiment: Ratio of MBC to MIC for Salmonella enterica NR-170 clinical isolates; type: functional
[29] = system: Salmonella enteritidis; experiment: Ratio of MBC to MIC for Salmonella enteritidis ATCC 13076 clinical isolates; type: functional, Salmonella enterica subsp. enterica serovar Enteritidis
[30] = system: Salmonella enteritidis; experiment: Ratio of MBC to MIC for Salmonella enteritidis ATCC 14028 clinical isolates; type: functional, Salmonella enterica subsp. enterica serovar Enteritidis
[31] = system: Pseudomonas aeruginosa; experiment: Ratio of MBC to MIC for Pseudomonas aeruginosa ATCC 9027 clinical isolates; type: functional
[32] = system: Pseudomonas aeruginosa; experiment: Ratio of MBC to MIC for Pseudomonas aeruginosa ATCC 25619 clinical isolates; type: functional
[33] = system: Pseudomonas aeruginosa; experiment: microbe, parasite or virus in culture; details: ATCC 25619
Description: Antibacterial activity against Pseudomonas aeruginosa ATCC 25619 clinical isolates after 18 to 20 hrs in aerobic condition by CLSI-based broth microdilution assay

Row | SMILES | MIC [1] [µg/mL] | MIC [2] [µg/mL] | MIC [3] [µg/mL] | MIC [4] [µg/mL] | MIC [5] [µg/mL] | MIC [6] [µg/mL] | MIC [7] [µg/mL] | MIC [8] [µg/mL] | MIC [9] [µg/mL] | MIC [10] [µg/mL] | MIC [11] [µg/mL] | MIC [12] [µg/mL] | MIC [13] [µg/mL] | Ratio [19] | Ratio [20] | Ratio [21] | Ratio [22] | Ratio [23] | Ratio [24] | Ratio [25] | further results
1 | C/C(=N\NC(=N)N)c1cnn(-c2ccc(C#CC3CCCCC3)cc2)c1C | 2 (≈ 5.52 µM) | 2 (≈ 5.52 µM) | 2 (≈ 5.52 µM) | 2 (≈ 5.52 µM) | 2 (≈ 5.52 µM) | 4 (≈ 11 µM) | 4 (≈ 11 µM) | 8 (≈ 22.1 µM) | 8 (≈ 22.1 µM) | 8 (≈ 22.1 µM) | 8 (≈ 22.1 µM) | 16 (≈ 44.1 µM) | 8 (≈ 22.1 µM) | <=2 | <=2 | <3 | >=1 | >=1 | >=1 | >=1 | MIC [14]: 8 µg/mL (≈ 22.1 µM); MIC [15]: 4 µg/mL (≈ 11 µM); MIC [16]: 32 µg/mL (≈ 88.3 µM); inhibition (INH) [17]: 22%; inhibition [18]: inactive; Ratio [26]: >=1; Ratio [27]: >=1; Ratio [28]: >=1; Ratio [29]: >=1; Ratio [30]: >=1; Ratio [31]: >=1; Ratio [32]: >=1; MIC [33]: 64 µg/mL (≈ 177 µM)
2 | C/C(=N\NC(=N)N)c1cnn(-c2ccc(C#CC3(O)CCCCC3)cc2)c1C | 2 (≈ 5.28 µM) | 2 (≈ 5.28 µM) | 2 (≈ 5.28 µM) | 2 (≈ 5.28 µM) | 2 (≈ 5.28 µM) | 4 (≈ 10.6 µM) | 4 (≈ 10.6 µM) | 16 (≈ 42.3 µM) | 8 (≈ 21.1 µM) | 16 (≈ 42.3 µM) | 8 (≈ 21.1 µM) | 16 (≈ 42.3 µM) | 64 (≈ 169 µM) | <=2 | <=2 | <3 | >=1 | >=1 | >=1 | >=1 | MIC [14]: > 64 µg/mL; MIC [15]: 32 µg/mL (≈ 84.5 µM); MIC [16]: 64 µg/mL (≈ 169 µM); Ratio [26]: >=1; Ratio [27]: >=1; Ratio [28]: >=1; Ratio [29]: >=1; Ratio [30]: >=1; Ratio [31]: >=1; Ratio [32]: >=1; MIC [33]: 32 µg/mL (≈ 84.5 µM)
3 | CCCCCC#Cc1ccc(-n2ncc(/C(C)=N/NC3=NCCN3)c2C)cc1 | 2 (≈ 5.31 µM) | 4 (≈ 10.6 µM) | 2 (≈ 5.31 µM) | 2 (≈ 5.31 µM) | 2 (≈ 5.31 µM) | 4 (≈ 10.6 µM) | 8 (≈ 21.2 µM) | > 128 | > 128 | > 128 | > 128 | > 128 | > 128 | <=2 | <=2 | <3 | >=1 | >=1 | >=1 | >=1 | inhibition [18]: inactive; Ratio [26]: >=1; Ratio [27]: >=1; Ratio [28]: >=1; Ratio [29]: >=1; Ratio [30]: >=1; Ratio [31]: >=1; Ratio [32]: >=1; MIC [33]: > 128 µg/mL
